One compound from BindingDB's records for PubMed 33356248 (Scientus Pharma, 2021) can be followed below.

The target in this assay is Cannabinoid receptor 2 (Homo sapiens, UniProt P34972).

SMILES strings stand for the structures. pEC50: −log10 of the molar value.

Chain of Cannabinoid receptor 2 (P34972 whole entry): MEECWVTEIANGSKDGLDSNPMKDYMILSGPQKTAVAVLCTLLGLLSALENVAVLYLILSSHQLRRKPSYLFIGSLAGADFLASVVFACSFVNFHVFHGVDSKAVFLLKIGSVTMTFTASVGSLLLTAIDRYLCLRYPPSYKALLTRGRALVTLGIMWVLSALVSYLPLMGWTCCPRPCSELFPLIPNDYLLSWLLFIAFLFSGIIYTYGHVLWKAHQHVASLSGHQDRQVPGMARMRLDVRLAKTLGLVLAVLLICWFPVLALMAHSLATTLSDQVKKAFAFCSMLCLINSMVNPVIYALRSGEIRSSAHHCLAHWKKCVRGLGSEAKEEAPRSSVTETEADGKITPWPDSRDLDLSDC

As for `CCCCCc1cc(O)c2c(c1)OC(C)(C)c1ccc(C)cc1-2` [6,6,9-Trimethyl-3-pentyl-6H-benzo[c]chromen-1-ol(Cannabinol)], the pEC50 (in general, the negative decadic logarithm of the EC50, by convention in mol/L) was 7.22.
